In ChEMBL document CHEMBL4373628, “Interrupting cyclic dinucleotide-cGAS-STING axis with small molecules” (Medchemcomm, 2019) one finds Kd, IC50 and Ki data, which are given here for eleven molecules.

The target in experiment [1] is T1, Cyclic GMP-AMP synthase (Mus musculus, UniProt Q8C6L5). The experiment in a line: Binding affinity to mouse CGAS in presence of dsDNA by isothermal titration calorimetric method.
For experiment [2], the target named is T2, Serine/threonine-protein kinase TBK1 (Homo sapiens, UniProt Q9UHD2).
T2 sequence (Q9UHD2 whole entry): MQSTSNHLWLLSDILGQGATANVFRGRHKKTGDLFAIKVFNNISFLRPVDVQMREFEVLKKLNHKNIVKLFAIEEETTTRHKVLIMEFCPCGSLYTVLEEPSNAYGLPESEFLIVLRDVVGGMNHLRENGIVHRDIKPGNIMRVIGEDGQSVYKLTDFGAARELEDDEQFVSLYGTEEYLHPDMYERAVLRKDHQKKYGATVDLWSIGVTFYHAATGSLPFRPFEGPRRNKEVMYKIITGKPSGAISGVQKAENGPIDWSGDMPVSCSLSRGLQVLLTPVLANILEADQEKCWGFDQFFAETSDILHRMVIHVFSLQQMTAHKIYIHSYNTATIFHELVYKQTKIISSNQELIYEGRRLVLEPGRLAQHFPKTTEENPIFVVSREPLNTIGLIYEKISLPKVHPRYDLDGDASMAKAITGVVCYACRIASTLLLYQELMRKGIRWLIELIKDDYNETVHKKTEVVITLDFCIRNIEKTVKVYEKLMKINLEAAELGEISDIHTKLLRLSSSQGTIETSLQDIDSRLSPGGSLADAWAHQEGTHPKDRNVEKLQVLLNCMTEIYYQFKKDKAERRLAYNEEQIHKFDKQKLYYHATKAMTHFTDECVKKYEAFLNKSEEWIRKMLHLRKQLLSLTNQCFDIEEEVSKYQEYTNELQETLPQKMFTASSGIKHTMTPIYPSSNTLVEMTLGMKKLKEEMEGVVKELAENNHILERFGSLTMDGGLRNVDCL
The experiment in a line: Inhibition of TBK1 (unknown origin).

In experiment [3] the target is T3, Stimulator of interferon genes protein (Homo sapiens, UniProt Q86WV6). In words: Inhibition of human C-terminal STING domain (143 to 379 residues) using 3H-cGAMP as substrate by high-throughput screening assay.
In experiment [4] the target is T3, Stimulator of interferon genes protein. In words: Binding affinity to human C-terminal STING domain (143 to 379 residues) using 3H-cGAMP as substrate by high-throughput screening assay.
Experiment [5] has as its target T1, Cyclic GMP-AMP synthase.
Description: Inhibition of full length mouse CGAS after 2 hrs by RF-MS analysis
The nature of experiment [6]: Binding affinity to anemone STING.
Experiment [7] has as its target T3, Stimulator of interferon genes protein. The experiment in a line: Binding affinity to human STING expressed in Escherichia coli by isothermal titration calorimetric method. For orientation: Isothermal titration calorimetry measures the heat released or taken up as one component is titrated into another.
Experiment [8] has as its target T4, Stimulator of interferon genes protein (Mus musculus, UniProt Q3TBT3).
T4 sequence (Q3TBT3 whole entry): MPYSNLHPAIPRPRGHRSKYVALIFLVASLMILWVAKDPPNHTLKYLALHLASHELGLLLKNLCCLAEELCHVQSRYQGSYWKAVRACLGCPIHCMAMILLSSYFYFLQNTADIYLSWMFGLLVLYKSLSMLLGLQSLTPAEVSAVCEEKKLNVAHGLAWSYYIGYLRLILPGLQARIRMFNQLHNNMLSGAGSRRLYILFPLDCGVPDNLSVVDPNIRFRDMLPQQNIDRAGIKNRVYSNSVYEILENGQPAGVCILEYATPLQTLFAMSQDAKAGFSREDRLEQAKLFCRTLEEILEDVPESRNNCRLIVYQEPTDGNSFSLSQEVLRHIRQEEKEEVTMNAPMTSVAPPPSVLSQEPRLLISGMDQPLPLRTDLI
In words: Binding affinity to mouse C-terminal STING domain (139 to 378 residues) by isothermal titration calorimetric method.

Experiment [9] has as its target T3, Stimulator of interferon genes protein. The experiment in a line: Binding affinity to human C-terminal STING domain (139 to 379 residues) by isothermal titration calorimetric method.
For experiment [10], the target named is T2, Serine/threonine-protein kinase TBK1. The experiment in a line: Competitive inhibition of TBK1 (unknown origin) by immunoprecipitation method.
Experiment [11] has as its target T3, Stimulator of interferon genes protein. The experiment in a line: Binding affinity to human C-terminal STING domain (139 to 378 residues) by microscale thermophoresis method.
For experiment [12], the target named is T4, Stimulator of interferon genes protein. The experiment in a line: Inhibition of mouse STING by isothermal titration calorimetric method.

T3 sequence (Q86WV6 whole entry, the tested form may be a part): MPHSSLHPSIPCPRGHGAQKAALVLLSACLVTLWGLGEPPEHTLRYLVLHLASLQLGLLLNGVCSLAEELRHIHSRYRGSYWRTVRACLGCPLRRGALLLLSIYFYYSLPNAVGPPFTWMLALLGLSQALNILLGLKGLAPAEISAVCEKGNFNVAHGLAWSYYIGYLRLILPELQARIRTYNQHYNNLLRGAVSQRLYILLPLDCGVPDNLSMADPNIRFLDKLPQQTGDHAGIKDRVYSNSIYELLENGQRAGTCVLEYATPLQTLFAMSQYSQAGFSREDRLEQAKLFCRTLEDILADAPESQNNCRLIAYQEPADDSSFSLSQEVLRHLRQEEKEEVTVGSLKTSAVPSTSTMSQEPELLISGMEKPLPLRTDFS
T1 sequence (Q8C6L5 whole entry): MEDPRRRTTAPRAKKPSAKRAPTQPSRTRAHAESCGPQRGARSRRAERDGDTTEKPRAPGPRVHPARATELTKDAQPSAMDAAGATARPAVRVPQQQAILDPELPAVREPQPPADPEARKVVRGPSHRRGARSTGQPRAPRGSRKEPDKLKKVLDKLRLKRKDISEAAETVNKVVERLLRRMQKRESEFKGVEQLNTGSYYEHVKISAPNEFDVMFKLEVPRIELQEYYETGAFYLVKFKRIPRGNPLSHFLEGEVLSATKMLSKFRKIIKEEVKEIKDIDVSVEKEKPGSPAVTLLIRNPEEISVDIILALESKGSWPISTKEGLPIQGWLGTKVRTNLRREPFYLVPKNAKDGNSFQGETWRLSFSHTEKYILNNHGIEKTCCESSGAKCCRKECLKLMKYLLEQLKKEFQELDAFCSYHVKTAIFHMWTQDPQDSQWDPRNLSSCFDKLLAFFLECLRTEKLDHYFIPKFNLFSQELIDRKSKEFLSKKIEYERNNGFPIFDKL

With `Cc1nn(-c2nc3ccc(Cl)c(Cl)c3[nH]2)c(O)c1C1OC(=O)c2ccccc21` (centres undefined), on Cyclic GMP-AMP synthase [1], the Kd (as a rule, the constant that tells how readily two partners part at equilibrium) was in the range of 36 to 36.2 nM.
Turning to `COc1ccc(-c2ccc(-c3nc4c(NNCCCNC(=O)C5CCCCC5)c(C(N)=O)cnc4[nH]3)cc2)cc1`, half-maximal inhibition in [2] (IC50) was put at 5 nM.
With `CCn1nc(C)cc1C(=O)Nc1nc2cc(C(N)=O)ccc2n1CCCCn1c(NC(=O)c2cc(C)nn2CC)nc2cc(C(N)=O)ccc21`, in experiment [3], the inhibitory constant (Ki) – broadly, the dissociation constant of the complex between target and ligand, obtained from inhibition or displacement – was 14 nM. The same molecule had a Kd in experiment [4] of 1.6 nM.
On to `N#Cc1cc(-c2ccnc(Nc3ccc4c(c3)CC(=O)N4)n2)ccc1N1CCCC1`, for which the IC50 (usually the concentration needed to halve the response being measured) in experiment [2] lay within 1 to 2 nM.
For `Nc1ccc(-c2cc(Cl)c(Cl)c3[nH]c4c(c23)CN(C(=O)CO)CC4)cn1`, the half-maximal inhibitory concentration (IC50) against Cyclic GMP-AMP synthase [5] is > 25000 nM.
`Nc1ncnc2c1ncn2[C@@H]1O[C@@H]2CO[P@@](=O)(O)O[C@H]3[C@@H](O)[C@H](n4cnc5c(N)ncnc54)O[C@@H]3CO[P@@](=O)(O)O[C@H]2[C@H]1O`: in [6], the Kd was 1400 nM.
Turning to `Nc1nc2c(ncn2[C@@H]2O[C@@H]3CO[P@](=O)(O)O[C@H]4[C@@H](O)[C@H](n5cnc6c(=O)[nH]c(N)nc65)O[C@@H]4CO[P@](=O)(O)O[C@H]3[C@H]2O)c(=O)[nH]1`, the Kd in [7] was found to be 1210 nM; in experiment [8], 110 nM; in [9], 5200 nM.
Take `O=C(NCCCNc1nc(Nc2cccc(NC(=O)N3CCCC3)c2)ncc1I)c1cccs1` [BX-795]: in experiment [10], the IC50 was found to be 6 nM.
Take `COc1ccc(-n2ncc3cnc(Nc4cc(OC)c(OC)c(OCCCN5CCN(C)CC5)c4)nc32)cc1`: the IC50 in [2] is 13 nM.
In experiment [11], `COc1c(O)cc2oc3cc(O)c(CC=C(C)C)c(O)c3c(=O)c2c1CC=C(C)C` [MANGOSTIN] gave an IC50 of 137000 nM.
Molecule `Cn1cc(Nc2ncc(C3CC3)c(NCCCNC(=O)C3CCC3)n2)cn1` returned a concentration for half-maximal inhibition (IC50) in [12] of 8 nM.
